Assay results from patent US11318157B2, “6-6 bicyclic aromatic ring substituted nucleoside analogues for use as PRMT5 inhibitors” (Janssen Pharmaceutica NV, priority 2015, dated 2022).

Legend:
[1] = tested on: nuclear symmetric Arginine dimethylation in A549 cells; test: PD assay (assay 2): inhibition of nuclear symmetric Arginine dimethylation (SYM10 immunohistochemistry), 48 h; assay type: cell-based; settings: Homo sapiens, A549, averaged values; PD assay, A549 cells, symmetric Arginine dimethylation; read-out: pIC50 Assay 2 (converted)
Procedure: Experimental Procedure PD Assay (Assay 2)
A549 cells (ATCC, Cat #CCL-185) were cultured in Dulbecco's Modified Eagle's Medium (DMEM) (Sigma, Cat #D5796), supplemented with 10% Fetal Calf Serum (FCS) (HyClone™, Cat #SV30160.03), 100 mM Sodium Pyruvate (Sigma, Cat #S8636), 200 mM L-Glutamine (Sigma, Cat #G7513) and 50 mg/mL gentamycin (Gibco, Cat #15750-037).
Reagents used for buffers were purchased: Dulbecco's phosphate buffered saline (DPBS) without Ca/Mg (Sigma, Cat #D8537), phosphate buffered saline (PBS) 10× (Roche, Cat #11 666 789 001), Formalin solution 10% (Sigma, HT50-1-128-4L), Methanol 100% (Sigma, Cat #32213-2.5L), Triton X-100 (Acros, Cat #215680010), Bovine Serum Albumin (BSA) (Sigma, Cat #A2153), Alexa fluor 488 goat anti-rabbit antibody (Life Technologies, Cat #A11034), HCS CellMask Deep Red Stain (Life Technologies, Cat #H32721), Hoechst Stain (Life Technologies, Cat #33258), Anti-dimethyl-Arginine, sym (SYM10) antibody (Millipore, 07-412).
Immunohistochemistry Procedure
Cells were plated at 400 cells/40 μL/well in 384 well black μplates clear bottom (Perkin Elmer) and overnight incubated at 37° C., 5% CO2. […] 80 nL of the respective dilution of the compounds was added using the Labcyte POD 810 (Labcyte) reaching a final DMSO concentration of 0.2% in cell culture. After an incubation period of 48 h at 37° C. and 5% CO2, cells were fixed in 10% formalin solution for 15 min at room temperature and 20 min in ice-cold methanol, after which they were washed 3× in DPBS. Subsequently, the cells were blocked for 1 h in blocking buffer (PBS+1% BSA and 0.5% Triton X-100) and incubated overnight at 4° C. with the SYM10 antibody diluted 1/2000 in blocking buffer. The cells were washed 3× with washing buffer (PBS+0.1% Triton X-100) and incubated with the Alexa fluor 488 goat anti-rabbit antibody diluted 1/200 in blocking buffer for 1 h at room temperature. Subsequently, they were washed 3× with washing buffer and incubated for 30 min at room temperature with PBS containing a 1/5000 dilution of Hoechst Stain and a 1/5000 dilution of the HCS CellMask Deep Red Stain. After a final wash with PBS, the plates were imaged using the 10×W lens of the Opera® system (Perkin Elmer Life Sciences) using following settings (values in nm):
In the above equations, the following variable names are used: […]
In the above equations, the following controls were used for normalization: […]
Low control: minimum level of symmetrically dimethylated Arginines (cells treated with reference compound at 10 μM).
High control: maximum level of symmetrically dimethylated Arginines (DMSO treated cells).
IC50 and pIC50 (−log IC50) values were calculated using the appropriate software.
The pIC50 values in the Table below are averaged values (Co. No. means compound number; n.d. means not determined).

PRMT5-MEP50 enzyme = molecular target: T1, PRMT5-MEP50 enzyme (Homo sapiens, UniProt O14744); test: In vitro assay 1b: high throughput mass spectrometer assay of SAH formation, 1.25 nM enzyme, 120 min; assay type: biochemical; settings: averaged values; PRMT5-MEP50, 1.25 nM enzyme, 120 min; read-out: pIC50 Assay 1b (converted)
T1 construct: One virus expresses full length human PRMT5 with Flag-tag at N-terminus; Flag (N); purchased Charles River (Argenta); host or cells: insect cells (Sf9), baculovirus co-infection
From the text: Experimental Procedures In Vitro Assay (Assay 1a and 1b)
PRMT5-MEP50 enzyme was purchased from Charles River (Argenta). The enzyme complex was produced in insect cells (Sf9) infected simultaneously with two baculoviruses. One virus expresses full length human PRMT5 with Flag-tag at N-terminus, the second virus expresses full length MEP50 with His6-TEV cleavage at N-terminus. The protein was affinity purified using anti-Flag (M2) beads eluted with 3×FLAG peptide, followed by His-Select eluted with 0.5M imidazole. Eluted protein was then dialysed against tris-buffered saline (TBS) (pH 8.0) containing 20% glycerol and 3 mM dithiothreitol (DTT).
Full-length untagged human recombinant histone H2A (residues 1-130, Genbank Accession #NM_021052 MW=14.1 kDa) expressed in E. coli was purchased from Reaction Biology Corporation, Cat #HMT-11-146. Reagents used for making reaction buffer or stopping reaction were purchased including Tris base (Sigma Cat #T-1503), NaCl (Sigma Cat #RGF-3270), MgCl2 (Sigma Cat #M0250), DTTI (Invitrogen Cat #15508-013) and Formic Acid (Riedel deHaen, Cat #33015)
High Throughput Mass Spectrometer Assay
PRMT5 catalyzes the sequential methylations of the terminal nitrogen atoms on the guanidine groups of arginine residues within proteins using co-substrate S-adenosyl-L-methionine (AdoMet, SAM), forming mono-methyl (MMA), symmetric-dimethyl arginine (sDMA) and S-adenosyl-L-homocysteine (AdoHcy, SAH). The enzyme activity was determined by following the product SAH formation using high throughput mass spectrometry (Agilent Rapidfire 300 System coupled to a Sciex 4000 series QTrap® triple-quad MS/MS). The reaction buffer was 20 mM Tris-HCl, pH 8.5, 50 mM NaCl, 5 mM MgCl2 and 1 mM DTT. The reaction activity was stopped using 1% formic acid (final concentration).
The IC50 Studies were performed using eleven point dosing series made for each compound by serially diluted 1:2 in dimethyl sulfoxide (DMSO), with point 12 being a DMSO control. Compounds were first spotted to plates, and followed by addition of 2 μM SAM and 0.6 μM H2A (histone H2A) solution mixture. The same volume of enzyme solution was added to initiate the enzymatic reactions. The final concentrations of the reaction are at 1 μM SAM, 0.3 μM H2A and 10 nM enzyme (assay 1a) or 1.25 nM enzyme (assay 1b). The reaction was incubated at 30° C. for 60 minutes (min) when 10 nM enzyme was used and for 120 min when 1.25 nM enzyme was used. Subsequently, the reaction was quenched by addition of formic acid to a final concentration of 1%. The inhibitions of SAH formation in the presence of compounds were calculated as a percentage of the control relative to the uninhibited reaction as a function of inhibitor concentration. The data were fit as follows: Y=Bottom+(Top−Bottom)/(1+10^((log IC50−X)*h))
where IC50 is the inhibitor concentration (same unit as X) at 50% inhibition and h is the Hill slope. Y is percent of inhibition, X is log of compound concentration. Bottom and Top are the plateaus in same units as Y.

T1 sequence (O14744 whole entry): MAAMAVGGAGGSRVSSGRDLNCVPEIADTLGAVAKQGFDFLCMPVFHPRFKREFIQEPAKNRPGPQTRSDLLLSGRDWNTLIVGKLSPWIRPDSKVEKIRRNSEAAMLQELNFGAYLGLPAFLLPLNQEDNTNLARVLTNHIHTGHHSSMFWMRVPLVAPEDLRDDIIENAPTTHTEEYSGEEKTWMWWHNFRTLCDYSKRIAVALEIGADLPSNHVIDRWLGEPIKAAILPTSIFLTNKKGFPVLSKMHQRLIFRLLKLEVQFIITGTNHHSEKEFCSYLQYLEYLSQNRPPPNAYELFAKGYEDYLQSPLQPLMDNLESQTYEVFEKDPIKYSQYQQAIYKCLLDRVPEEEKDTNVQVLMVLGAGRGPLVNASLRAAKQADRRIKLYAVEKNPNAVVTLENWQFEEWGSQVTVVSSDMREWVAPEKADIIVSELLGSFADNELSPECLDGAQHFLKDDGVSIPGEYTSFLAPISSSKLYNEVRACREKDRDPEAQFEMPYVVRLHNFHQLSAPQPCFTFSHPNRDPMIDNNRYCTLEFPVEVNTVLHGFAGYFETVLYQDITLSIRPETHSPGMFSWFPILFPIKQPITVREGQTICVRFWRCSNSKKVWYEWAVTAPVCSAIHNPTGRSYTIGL
T1 sequence (Q9BQA1 whole entry partner): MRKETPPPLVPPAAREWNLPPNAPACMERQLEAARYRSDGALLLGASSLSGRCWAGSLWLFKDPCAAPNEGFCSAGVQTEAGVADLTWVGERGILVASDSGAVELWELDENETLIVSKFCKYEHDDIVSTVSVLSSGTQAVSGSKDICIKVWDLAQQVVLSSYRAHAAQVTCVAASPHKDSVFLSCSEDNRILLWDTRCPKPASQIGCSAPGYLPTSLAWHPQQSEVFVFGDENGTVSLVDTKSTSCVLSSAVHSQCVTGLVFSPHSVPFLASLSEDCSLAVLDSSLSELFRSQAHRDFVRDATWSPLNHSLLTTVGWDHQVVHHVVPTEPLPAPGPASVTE

| SMILES | IC50 [1] | IC50 (PRMT5-MEP50 enzyme) |
| --- | --- | --- |
| CNc1ncnc2c1ccn2[C@@H]1C[C@H](CCc2ccc3ccc(NCC(F)F)nc3c2)[C@@H](O)[C@H]1O [Compound 184] | 63.1 nM | 2 nM |
| COc1ncnc2c1ccn2[C@@H]1C[C@H](CCc2ccc3cc(Cl)c(N)nc3c2)[C@@H](O)[C@H]1O [Compound 195] | 25.1 nM | 0.501 nM |
| CC(C)Nc1ncnc2c1ccn2[C@@H]1C[C@H](CCc2ccc3cc(Cl)c(N)nc3c2)[C@@H](O)[C@H]1O [Compound 196] | 100 nM | 2 nM |
| Nc1nc2cc(CC[C@H]3C[C@@H](n4ccc5c(NC6CC6)ncnc54)[C@H](O)[C@@H]3O)ccc2cc1Cl [Compound 197] | 31.6 nM | 0.631 nM |
| CNc1ncnc2c1ccn2[C@@H]1O[C@H](CCc2ccc3cc(Cl)c(N)nc3c2)[C@@H](O)[C@H]1O [Compound 198] | 63.1 nM | 3.98 nM |
| CNc1ncnc2c1ccn2[C@@H]1C[C@H](CCc2ccc3cc(F)c(N)nc3c2)[C@@H](O)[C@H]1O [Compound 202] | 15.8 nM | 1.58 nM |
| COc1ncnc2c1ccn2[C@@H]1C[C@H](CCc2ccc3cc(F)c(N)nc3c2)[C@@H](O)[C@H]1O [Compound 204] | 63.1 nM | 3.98 nM |
| COc1ncnc2c1ccn2[C@@H]1C[C@H](CCc2ccc3ccc(NCC4CC4)nc3c2)[C@@H](O)[C@H]1O [Compound 210] | 126 nM | 2.51 nM |
| CNc1ncnc2c1ccn2[C@@H]1C[C@H](CCc2ccc3cc(Br)c(N)nc3c2)[C@@H](O)[C@H]1O [Compound 238] | 1.26 nM | 0.794 nM |

Next, values leading:

| IC50 [1] | IC50 (PRMT5-MEP50 enzyme) | SMILES |
| --- | --- | --- |
| 316 nM | 6.31 nM | COc1ncnc2c1ccn2[C@@H]1C[C@H](CCc2ccc3ccc(NCC(F)F)nc3c2)[C@@H](O)[C@H]1O [Compound 182] |
| 6.31 nM | 0.501 nM | CNc1ncnc2c1ccn2[C@@H]1C[C@H](CCc2ccc3ccc(NC4CCC4)nc3c2)[C@@H](O)[C@H]1O [Compound 183] |
| 631 nM | 39.8 nM | COc1ncnc2c1ccn2[C@@H]1C[C@H](CCc2ccc3ccc(NCC(F)(F)F)nc3c2)[C@@H](O)[C@H]1O [Compound 188] |
| 1.58 nM | 0.631 nM | CNc1ncnc2c1ccn2[C@@H]1C[C@H](CCc2ccc3cc(Cl)c(N)nc3c2)[C@@H](O)[C@H]1O [Compound 194] |
| 251 nM | 39.8 nM | COc1ncnc2c1ccn2[C@@H]1O[C@H](CCc2ccc3cc(Cl)c(N)nc3c2)[C@@H](O)[C@H]1O [Compound 199] |
| 1000 nM | 6.31 nM | COc1ncnc2c1ccn2[C@@H]1C[C@H](CCc2ccc3cc(C(F)(F)F)c(N)nc3c2)[C@@H](O)[C@H]1O [Compound 200] |
| 39.8 nM | 1.58 nM | CNc1ncnc2c1ccn2[C@@H]1C[C@H](CCc2ccc3cc(C(F)(F)F)c(N)nc3c2)[C@@H](O)[C@H]1O [Compound 201] |
| 6310 nM | > 2510 nM | CNc1nc2cc(CC[C@H]3C[C@@H](n4ccc5c(NC)ncnc54)[C@H](O)[C@@H]3O)ccc2cc1F [Compound 203] |
| 25.1 nM | 1.58 nM | CNc1ncnc2c1ccn2[C@@H]1C[C@H](CCc2ccc3ccc(NC(C)C)nc3c2)[C@@H](O)[C@H]1O [Compound 206] |
| 15.8 nM | 0.316 nM | CNc1ncnc2c1ccn2[C@@H]1C[C@H](CCc2ccc3ccc(NCC4CC4)nc3c2)[C@@H](O)[C@H]1O [Compound 209] |
| ~2570 nM | 3.16 nM | C=Cc1ncnc2c1ccn2[C@@H]1C[C@H](CCc2ccc3ccc(NCC4CC4)nc3c2)[C@@H](O)[C@H]1O [Compound 211] |
| 1.26 nM | 0.2 nM | Nc1nc2cc(OC[C@H]3C[C@@H](n4ccc5c(N)ncnc54)[C@H](O)[C@@H]3O)ccc2cc1Cl [Compound 223] |
| 100 nM | 6.31 nM | CNc1ccc2ccc(OC[C@H]3C[C@@H](n4ccc5c(NC)ncnc54)[C@H](O)[C@@H]3O)cc2n1 [Compound 226] |
| 6.31 nM | 1.58 nM | CNc1ncnc2c1ccn2[C@@H]1C[C@H](COc2ccc3cc(Br)c(N)nc3c2)[C@@H](O)[C@H]1O [Compound 237] |
